# According to patent US4563463A, “2-Oxo-1,3-oxazolo[4,5-h] quinolines useful as anti-allergy agents” (priority 1984, dated 1986):
# Read-outs that look alike come from different tables or passages of the source.
# How the values were obtained:
# [1] = tested on: Rat Passive Cutaneous Anaphylaxis; test: Rat Passive Cutaneous Anaphylaxis (PCA) Screen: inhibition of wheal formation; assay type: in vivo; conditions: for ED50: Rattus norvegicus; for inhibition of wheal formation in the PCA test: 10 mg/kg, intraperitoneal
# Text: The compounds of this invention have potent activity in inhibiting the formation of a wheel when screened according to the Rat Passive Cutaneous Anaphylaxis (PCA) Screen as described by I. Mota, Life Sciences, 7, 465 (1963) and Z. Ovary, et al. Proceedings of Society of Experimental Biology and Medicine, 81, 584 (1952).
# [2] = tested on: passively sensitized Rat Mast Cells; test: Rat Mast Cell (RMC) test: inhibition of histamine release from passively sensitized Rat Mast Cells; assay type: cell-based; conditions: for IC50: Mast cell, histamine release, passively sensitized rat mast cells, read-out: I50 value in the RMC test; for RMC % inh.: at 50 μm (number in parentheses)
# Text: In addition, the compounds of this invention have potent activity as inhibitors of histamine release from passively sensitized Rat Mast Cells according to the porcedure described by E. Kusner, et al., Journal of Pharmacology and Experimental Therapeutics, 184, 41 (1973).
# [3] = PO, 25 mg/kg (number in parentheses)
# [4] = PO, 125 mg/kg (number in parentheses)
structure (smiles),measurement,setting,value
"COC(=O)c1nc2cc(Cl)c3cccnc3c2o1 [Example 1C, 2-Carbomethoxy-5-chloro-1,3-oxazolo-[4,5-h]quinoline]",ED50,"[1]; ip, intraperitoneal route, read-out: E50 value in PCA test",0.5 mg/kg
same,ED50,"[1]; oral route, read-out: E50 value in PCA test",1 mg/kg
same,IC50,[2],300 nM
"CCOC(=O)c1nc2cc(Cl)c3cccnc3c2o1 [Example 4, 2-carboethoxy-5-chloro-1,3-oxazolo-[4,5-h]quinoline]",inhibition of wheal formation in the PCA test,[1],59%
same,IC50,[2],100 nM
"O=C([O-])c1nc2cc(Cl)c3cccnc3c2o1.[Na+] [Example 14, 5-chloro-1,3-oxazolo-[4,5-h]quinoline-2-carboxylate, sodium salt]",inhibition of wheal formation in the PCA test,[1],51%
same,IC50,[2],100 nM
"O=c1[nH]c2ccc3cccnc3c2o1 [Example 18, 2-Oxo-3H-oxazolo[4,5-h]quinoline]",ED50,"[1]; IP, Table I, read-out: PCA ED50 IP",10 mg/kg
same,ED50,"[1]; PO, Table I, read-out: PCA ED50 PO",4 mg/kg
same,RMC % inh.,[2],< 30%
O=c1[nH]c2cc(Cl)c3cccnc3c2o1 [Example 19],PCA % inh. PO,[1]; [3],0%
"CC(=O)n1c(=O)oc2c3ncccc3ccc21 [Example 20, 3-Acetyl-2-oxo-3H-oxazolo[4,5-h]quinoline]",PCA % inh. PO,[1]; [4],14%
same,RMC % inh.,[2],18%
COc1cccc(C(=O)n2c(=O)oc3c4ncccc4c(Cl)cc32)c1 [Example 22],PCA % inh. PO,"[1]; PO, 100 mg/kg (number in parentheses)",43%
CC(C(=O)n1c(=O)oc2c3ncccc3c(Cl)cc21)c1ccccc1 (centres unmarked) [Example 23],PCA % inh. IP,"[1]; IP, 125 mg/kg (number in parentheses)",34%
same,RMC % inh.,[2],16%
CN(C)C(=O)n1c(=O)oc2c3ncccc3c(Cl)cc21 [Example 24],PCA % inh. PO,[1]; [3],0%
same,RMC % inh.,[2],18%
"Cn1c(=O)oc2c3ncccc3c(Cl)cc21 [Example 25, 5-Chloro-3-methyl-2-oxo-3H-oxazolo[4,5-h]quinoline]",PCA % inh. PO,[1]; [4],51%
same,RMC % inh.,[2],0%
